Where two headings read alike, the source gives them in different places.
How the values were obtained:
MOLM-13 cells = assay: Cell proliferation assay (alamarBlue), MOLM-13; format: cell-based; conditions: Homo sapiens, Leukaemia, 96 hours, inhibition of cell proliferation
Protocol: (§1) In accordance with the invention, the ability of the substances to inhibit cell proliferation was determined Cell viability was determined by means of the alamarBlue® reagent (Invitrogen) in a Victor X3 Multilabel Reader (Perkin Elmer). The excitation wavelength was 530 nm and the emission wavelength […].
The MOLM-13 cells (DSMZ, ACC 554) were sown at a concentration of 4000 cells/well in 100 μl of growth medium (RPMI1640, 10% FCS) on 96-well microtitre plates.
(§2) The MDA-MB-231 cells (DSMZ, ACC 732) were sown at a concentration of 4000 cells/well in 100 μl of growth medium (DMEM/Ham's F12 medium, 10% FCS) on 96-well microtitre plates. After overnight incubation at 37° C., the fluorescence values (CI values) were determined. Then the plates were treated with various substance dilutions (1E-5 M, 3E-6 M, 1E-6 M, 3E-7 M, 1E-7 M, 3E-8 M, 1E-8 M) and incubated at 37° C. for 72 (MV-4-11, LOX-IMVI cells), 96 (MOLM-13, B16F10, […] cells), 120 (MOLP-8, KMS-12-PE cells) or 168 (LAPC-4 cells) hours. Subsequently, the fluorescence values were determined (CO values). For the data analysis, the CI values were subtracted from the CO values and the results were compared between cells which had been treated with various dilutions of the substance or only with buffer solution. The ICso values (substance concentration needed for 50% inhibition of cell proliferation) were calculated therefrom.
(§3) The substances were tested in the cell lines in Table 1, which represent the indications specified by way of example: […]

MOLP-8 cells = assay: Cell proliferation assay (alamarBlue), MOLP-8; format: cell-based; conditions: Homo sapiens, Multiple myeloma, 120 hours, inhibition of cell proliferation
Protocol: as §1
The MOLP-8 cells (DSMZ, ACC 569) were sown at a concentration of 4000 cells/well in 100 μl of growth medium (RPMI1640, 20% FCS) on 96-well microtitre plates.
as §2, §3

BRD4 (BD1) = biological target: T1, BRD4 (BD1) (Homo sapiens, UniProt O60885); assay: Binding assay BRD4/acetylated peptide H4 (TR-FRET protein-protein interaction assay)
T1 construct: amino acids 67-152, longer constructs also being possible, preferably amino acids 44-168; made in house; host or cells: E. coli
Description: To assess the BRD4 binding strength of the substances described in this application, the ability thereof to inhibit the interaction between BRD4 (BD1) and acetylated histone H4 in a dose-dependent manner was quantified.
For this purpose, a time-resolved fluorescence resonance energy transfer (TR-FRET) assay was used, which measures the binding between N-terminally His6-tagged BRD4 (BD1) (amino acids 67-152, longer constructs also being possible, preferably amino acids 44-168) and a synthetic acetylated histone H4 (Ac-H4) peptide with sequence GRGK(Ac)GGK(Ac)GLGK(Ac)GGAK(Ac)RHGSGSK-biotin. The recombinant BRD4 protein produced in-house according to Filippakopoulos et al., Nature, 2010, 468:1119-1123 was expressed in E. coli and purified by means of (Ni-NTA) affinity and (Sephadex G-75) size exclusion chromatography. The Ac-H4 peptide can be purchased, for example, from Biosyntan (Berlin, Germany).
In the assay, typically 11 different concentrations of each substance (0.1 nM, 0.33 nM, 1.1 nM, 3.8 nM, 13 nM, 44 nM, 0.15 μM, 0.51 μM, 1.7 μM, 5.9 μM and 20 μM) were analysed as duplicates on the same microtitre plate. For this purpose, 100-fold concentrated solutions in DMSO were prepared by serial dilutions (1:3.4) of a 2 mM stock solution into a clear, 384-well microtitre plate (Greiner Bio-One, Frickenhausen, Germany). From this, 50 nl were transferred into a black test plate (Greiner Bio-One, Frickenhausen, Germany). The test was started by the addition of 2 μl of a 2.5-fold concentrated BRD4 solution (final concentration typically 10 nM in the 5 μl of reaction volume) in aqueous assay buffer [50 mM HEPES pH 7.5, 50 mM sodium chloride (NaCl), 0.25 mM CHAPS and 0.05% serum albumin (BSA)] to the substances in the test plate. This was followed by a 10-minute incubation step at 22° C. for the pre-equilibration of putative complexes between BRD4 and the substances.
The mixture was then incubated in the dark at 22° C. for one hour and then at 4° C. for at least 3 hours and for no longer than overnight. The formation of BRD4/Ac-H4 complexes was determined by the measurement of the resonance energy transfer from the streptavidin-Eu cryptate to the anti-6His-XL665 antibody present in the reaction. For this purpose, the fluorescence emission was measured at 620 nm and 665 nm after excitation at 330-350 nm in a TR-FRET measuring instrument, for example a Rubystar or Pherastar (both from BMG Lab Technologies, Offenburg, Germany) or a Viewlux (Perkin-Elmer). The ratio of the emissions at 665 nm and at 622 nm was taken as an indicator of the amount of BRD4/Ac-H4 complexes formed.
The data (ratios) obtained were normalized, with 0% inhibition corresponding to the mean from the measurements for a set of controls (typically 32 data points) in which all the reagents were present. In these, in place of test substances, 50 nl of DMSO (100%) were used Inhibition of 100% corresponded to the mean from the measurements for a set of controls (typically 32 data points) in which all the reagents except BRD4 were present. The IC50 was determined by regression analysis based on a 4-parameter equation (minimum, maximum, IC50, Hill; Y=max+(min−max)/(1+(X/IC50)^Hill)).

LAPC-4 cells = assay: Cell proliferation assay (alamarBlue), LAPC-4; format: cell-based; conditions: Homo sapiens, LAPC4, Prostate, 1 nM methyltrienolone, 168 hours, inhibition of cell proliferation
Protocol: as §1
The LAPC-4 cells (ATCC, PTA-1441TM) were sown at a concentration of 4000 cells/well in 100 μl of growth medium (RPMI1640, 2 mM L-glutamine, 10% cFCS) on 96-well microtitre plates. One day later, the LAPC-4 cells were treated with 1 nM methyltrienolone and various substance dilutions.
as §2, §3

B16F10 cells = assay: Cell proliferation assay (alamarBlue), B16F10; format: cell-based; conditions: Mus musculus, B16-F10, Melanoma (BRAF wild-type), 96 hours, inhibition of cell proliferation
Protocol: as §1
The B16F10 cells (ATCC, CRL-6475) were sown at a concentration of 300-500 cells/well in 100 μl of growth medium (DMEM with phenol red, 10% FCS) on 96-well microtitre plates.
as §2, §3

MDA-MB-231 cells = assay: Cell proliferation assay (alamarBlue), MDA-MB-231; format: cell-based; conditions: Homo sapiens, Breast, 96 hours, inhibition of cell proliferation
Protocol: as §1, §2, §3

[1] = BRD4 (BD1) / acetylated histone H4 peptide, TR-FRET, read-out: IC50 (BRD4)

Structure (SMILES) | IC50 (MOLM-13 cells) | IC50 (MOLP-8 cells) | IC50 (BRD4 (BD1); [1]) | IC50 (LAPC-4 cells) | IC50 (B16F10 cells) | IC50 (BRD4 (BD1)) | IC50 (MDA-MB-231 cells)
Cc1c2c(cn1C)-n1c(C)nnc1[C@H](CC(=O)Nc1ccc3c(c1)CC(=O)N3)N=C2c1ccc(Cl)cc1 [Example 13, 2-[(4S)-6-(4-Chlorophenyl)-1,7,8-trimethyl-4,8-dihydropyrrolo[3,4-f][1,2,4]triazolo[4,3-a][1,4]diazepin-4-yl]-N-(2-oxo-2,3-dihydro-1H-indol-5-yl)acetamide] | 190 nM | 220 nM | 40 nM | 90 nM | 330 nM | – | –
Cc1c2c(cn1C)-n1c(C)nnc1[C@H](CC(=O)N1CC(F)C1)N=C2c1ccc(Cl)cc1 [Example 5, (−)-2-[(4S)-6-(4-Chlorophenyl)-1,7,8-trimethyl-4,8-dihydropyrrolo[3,4f][1,2,4]triazolo [4,3-a][1,4]diazepin-4-yl]-1-(3-fluoroazetidin-1-yl)ethan-1-one] | 530 nM | 370 nM | 70 nM | 370 nM | 580 nM | – | –
COC(=O)C[C@@H]1N=C(c2ccc(Cl)cc2)c2nn(C)cc2-n2c(C)nnc21 [Example 6, 2-[(4S)-6-(4-Chlorophenyl)-1,8-dimethyl-4,8-dihydropyrazolo[3,4-f][1,2,4]triazolo[4,3-a][1,4]diazepin-4-yl]acetic acid methyl ester] | 450 nM | 450 nM | – | 250 nM | 550 nM | 140 nM | –
Cc1c2c(cn1C)-n1c(C)nnc1[C@H](Cc1nc(C(C)C)no1)N=C2c1ccc(Cl)cc1 [Example 30, (4S)-6-(4-Chlorophenyl)-1,7,8-trimethyl-4-{[3-(propan-2-yl)-1,2,4-oxadiazol-5-yl]methyl}-4,8-dihydropyrrolo[3,4-f][1,2,4]triazolo[4,3-a][1,4]diazepine] | 70 nM | 50 nM | 30 nM | – | – | – | –
COC(=O)C[C@@H]1N=C(c2ccc(Cl)cc2)c2c(cnn2C)-n2c(C)nnc21 [Example 7, 2-[(4S)-6-(4-Chlorophenyl)-1,7-dimethyl-4,7-dihydropyrazolo[3,4-f][1,2,4]triazolo[4,3-a][1,4]diazepin-4-yl]acetic acid methyl ester] | 740 nM | 450 nM | – | – | – | 230 nM | –
CCc1noc(C[C@@H]2N=C(c3ccc(Cl)cc3)c3c(cn(C)c3C)-n3c(C)nnc32)n1 [Example 28, (4S)-6-(4-Chlorophenyl)-1,7,8-trimethyl-4-[(3-ethyl-1,2,4-oxadiazol-5-yl)methyl]-4,8-dihydropyrrolo[3,4-f][1,2,4]triazolo[4,3-a][1,4]diazepine] | 70 nM | 40 nM | 30 nM | – | – | – | –
COC(=O)C[C@@H]1N=C(c2ccccc2)c2c(cn(C)c2C)-n2c(C)nnc21 [Example 2, 2-(4S)-(1,7,8-Trimethyl-6-phenyl-4,8-dihydropyrrolo[3,4f][1,2,4]triazolo[4,3-a][1,4]diazepin-4-yl)acetic acid methyl ester] | 330 nM | – | – | 30 nM | 80 nM | 10 nM | 90 nM
Cc1nnc2n1-c1cn(C)nc1C(c1ccc(Cl)cc1)=NC2CC(=O)N1CCS(=O)(=O)CC1 (centres unmarked) [Example 14, 2-[6-(4-Chlorophenyl)-1,8-dimethyl-4,8-dihydropyrazolo[3,4-f][1,2,4]triazolo[4,3-a][1,4]diazepin-4-yl]-1-(1,1-dioxidothiomorpholin-4-yl)ethanone] | 3460 nM | 4000 nM | 640 nM | – | – | – | –
Cc1c2c(cn1C)-n1c(C)nnc1[C@H](CC(=O)N1CCC(=O)C1)N=C2c1ccc(Cl)cc1 [Example 12] | 480 nM | – | 110 nM | 220 nM | 600 nM | – | –
Cc1c2c(cn1C)-n1c(C)nnc1[C@H](CC(=O)N(C)CC1(C)COC1)N=C2c1ccc(Cl)cc1 [Example 11, (−)-2-[(4S)-6-(4-Chlorophenyl)-1,7,8-trimethyl-4,8-dihydropyrrolo[3,4f][1,2,4]triazolo[4,3-a][1,4]diazepin-4-yl]-N-methyl-N-[(3-methyloxetan-3-yl)methyl]acetamide] | 1990 nM | – | 220 nM | 810 nM | 1400 nM | – | –
COC(=O)C[C@@H]1N=C(c2ccc(Cl)cc2)c2c(cn(C)c2C)-n2c(C)nnc21 [Example 1] | 130 nM | 50 nM | – | 50 nM | 80 nM | 10 nM | 90 nM
Cc1c2c(cn1C)-n1c(C)nnc1[C@H](CC(=O)N1CCS(=O)(=O)CC1)N=C2c1ccc(Cl)cc1 [Example 8, (−)-2-[(4S)-6-(4-Chlorophenyl)-1,7,8-trimethyl-4,8-dihydropyrrolo[3,4f][1,2,4]triazolo[4,3-a][1,4]diazepin-4-yl]-1-(1,1-dioxidothiomorpholino)ethan-1-one] | 560 nM | 440 nM | 100 nM | 360 nM | 670 nM | – | –
Cc1c2c(cn1C)-n1c(C)nnc1[C@H](CC(=O)OC(C)(C)C)N=C2c1ccc(Cl)cc1 [Example 3] | 210 nM | 190 nM | 30 nM | 100 nM | 190 nM | – | –
Cc1noc(C[C@@H]2N=C(c3ccc(Cl)cc3)c3c(cn(C)c3C)-n3c(C)nnc32)n1 [Example 26, (4S)-6-(4-Chlorophenyl)-1,7,8-trimethyl-4-[(3-methyl-1,2,4-oxadiazol-5-yl)methyl]-4,8-dihydropyrrolo[3,4-f][1,2,4]triazolo[4,3-a][1,4]diazepine] | 80 nM | 50 nM | 20 nM | – | – | – | –
